Measurements from US20240325396A1, “METHODS FOR TREATING CANCER” (Allarity Therapeutics, Inc., priority 2023, published 2024).
Read-outs that look alike come from different tables or passages of the source.

Key:
[1] = cited from earlier work
[2] = test system: BRCA1 mutant MDA-MB-436 human breast cancer subcutaneous xenograft; test: MDA-MB-436 subcutaneous xenograft model, anti-tumor activity; assay type: in vivo; settings: 30 and 100 mg/kg
[3] = test system: human acute myeloid leukemia (AML) MV-4-11-luc2/AcGFP; test: AML MV-4-11-luc2/AcGFP survival model; assay type: in vivo
Advanced Solid Tumors = test: Phase 1 study E7449-E044-101, tumor response (RECIST 1.1); assay type: in vivo, human
Protocol: The overall objective response rate (ORR; CR+PR) was 4.9% (n=2) with 1 subject each in the 600 mg (MTD) and 800 mg dose groups with a BOR of PR.

[4] = Phase 1 study, pharmacokinetics in plasma and urine; assay type: in vivo, human
Description: Food intake vs fasting comparisons were made after administration of the Cycle 1 Day 7 dose (FIG. 2A) and after the Cycle 1 Day 15 dose (FIG. 2B).

[5] = test system: PARP activity (PAR levels); test: Phase 1 study, PARP inhibition by change in PAR levels; assay type: in vivo, human
[6] = Safety: Phase 1 study with preliminary Phase 2 metastatic breast cancer data; assay type: in vivo
Protocol: Phototoxicity was in the Danish study primarily seen in 2 subjects treated during the hot summer period in 2018.
Anemia was registered in only few subjects at doses of 400 mg and above 3/42 (7%) (all grade 2) and 4/42 had increased liver enzymes (grade 2: 1/42 (2.6%) and grade 3: 3/42 (7%)).
Gastrointestinal side-effects were registered in some subjects: nausea 14/42 (33%), vomiting 7/42 (16%) and diarrhea 13/42 ([…]) all grade 1-2 apart from two cases of grade 3 diarrhea.

breast cancer = test: Phase 2 breast cancer study, response; assay type: in vivo, human; settings: twelve subjects evaluable for response
Description: A breast cancer study was initiated in June 2018 and discontinued for futility after enrollment of 16 subjects. Twelve subjects were evaluable for response: Nine had PD and three subjects had SD.

advanced ovarian cancer = test: Phase 2 advanced ovarian cancer study QD vs BID, tumor response (RECIST 1.1), PFS; assay type: in vivo, human
Description: Patient population: Histologically or cytologically documented epithelial ovarian carcinoma including high-grade serous, endometrioid, clear cell, carcinosarcoma, undifferentiated, and mixed histological subtypes (independent of BRCA1 and homologous recombination (HR) deficiency (HRD) status) and with 2 or more previous chemotherapies/antibody therapies including treatment with other PARPi for advanced, refractory, or recurrent ovarian cancer.
The Interim Analysis Population (IAP) and safety population consisted of 28 patients (10 BID and 18 QD). Five patients received a first dose but dropped out before any tumor evaluation.
FIG. 4A and FIG. 4B show the best change in tumor diameter from baseline in the IAP QD population (FIG. 4A) and the IAP BID population (FIG. 4B). The mean of best change in tumor diameter from baseline in the QD population (FIG. 4A) was 4% tumor growth. The CR in the BID pollution (FIG. 4B) was unconfirmed, and consisted of target lymph node lesions that all turned normal. This CR patient also had CA125 CR unconfirmed status. The mean of best change in tumor diameter from baseline in the BID population (FIG. 4B) was 29% tumor reduction. The median PFS was not reached in the BID population, and was 50 days (1.6 months) in the QD population.

CA125 = test: Phase 2 advanced ovarian cancer study, CA125 test response (GCIG); assay type: in vivo, human
Protocol: Only patients with a baseline of CA125 twice the upper normal limit of 70 unit/ml who received at least one dose were included in IAP. Only patients who had completed 2 cycles were determined to be evaluable for CA125 response. Two QD patients and four BID patients were below 70 units/ml. The CA125 test was confirmed with a second measurement that was lower than or within 10% of the previous measurement.

[7] = Phase 2 advanced ovarian cancer study, adverse events and dose modifications; assay type: in vivo, human
[8] = Myelotoxicity, ovarian cancer patients pooled with 14 metastatic breast cancer patients; assay type: in vivo, human; settings: BID + QD (N = 42)
Protocol: Because myelotoxicity appeared to be a rare event for 2×-121, 14 patients with metastatic breast cancer that received 600 mg QD in a phase II trial were included in Table 10.

[9] = published Phase I trial (Plummer, Br J Cancer 2020); cited from earlier work
P-gp = test: in vitro; settings: mouse
[10] = test system: SR human B cell lymphoma cell line; test: Cell proliferation assay, SR; settings: 192 h, read-out: IC50, inhibition of cell proliferation
[11] = test system: BRCA1 mutant human triple negative breast cancer cell line MDA-MB-436; test: Cell proliferation assay, MDA-MB-436; settings: MDA-MB-436, 192 h, read-out: IC50, inhibition of cell proliferation
[12] = test system: human acute myeloid leukemia MV-4-11-luc2/AcGFP cell line; test: Cell proliferation assay, MV-4-11-luc2/AcGFP; settings: 144 h, read-out: IC50, inhibition of cell proliferation

Compound: NC(=O)c1cccc2cn(-c3ccc([C@@H]4CCCNC4)cc3)nc12 [niraparib]
- Adverse events Grade 5 ([1]; 300 mg QD (N = 463), QUADRA trial): 2%
- Dose modifications: Discontinuation ([1]; 300 mg QD (N = 463)): 21%
- Dose modifications: Interruption ([1]; 300 mg QD (N = 463)): 62%
- Dose modifications: Reduction ([1]; 300 mg QD (N = 463)): 47%
- Treatment-related adverse events Grade 1 ([1]; 300 mg QD (N = 463)): 90%
- Treatment-related adverse events Grade 2 ([1]; 300 mg QD (N = 463)): 56%
- Treatment-related adverse events Grade 3 ([1]; 300 mg QD (N = 463)): 20%
- Treatment-related adverse events Grade 4 ([1]; 300 mg QD (N = 463)): <1%
- Anemia Grade 1-4 ([1]; QD (N = 463)): 51%
- Anemia Grade 3-4 ([1]; QD (N = 463)): 27%
- Neutropenia Grade 1-4 ([1]; QD (N = 463)): 20%
- Neutropenia Grade 3-4 ([1]; QD (N = 463)): 13%
- Thrombocytopenia Grade 1-4 ([1]; QD (N = 463)): 52%
- Thrombocytopenia Grade 3-4 ([1]; QD (N = 463)): 28%

Compound: O=c1[nH]nc2c3c(cccc13)N=C(CN1Cc3ccccc3C1)N2 [stenoparib, 8-(isoindolin-2-ylmethyl)-2,9-dihydro-3H-pyridazino [3,4,5-de] quinazolin-3-one]
- tolerability, body weight loss ([2]; 28 days): no significant body weight loss
- tumor growth inhibition ([2]; consecutive 28-day administration): statistically significant tumor growth inhibition
- disease burden as measured by luciferase signal ([3]; 100 mg/kg): Reduced disease burden
- survival benefit ([3]; 100 mg/kg for 28 days): statistically significant survival benefit
- tolerability, body weight loss ([3]; 10, 30 or 100 mg/kg): well-tolerated without any significant body weight loss
- disease burden by luciferase signal and survival benefit ([3]; 10 and 30 mg/kg): No statistically significant reduction in disease burden by luciferase signal or survival benefit
- BOR of stable disease (Advanced Solid Tumors; 13 subjects): 31.7%
- subjects with best overall response (BOR) of CR (Advanced Solid Tumors; 35 subjects assessed, investigator assessment, once daily dosing): None
- overall objective response rate (ORR; CR+PR) (Advanced Solid Tumors; n=2, one PR each at 600 mg and 800 mg): 4.9%
- increase of AUC by food ([4]; 600 mg dose, plasma): 10%
- reduction of Cmax by food ([4]; 600 mg dose, plasma): 60%
- accumulation based on AUC ([4]; Day -2 vs Day 15 administration): minimal accumulation
- Tmax ([4]; human, plasma, across subjects and dose groups, oral): 0.5 to 4 h
- administered dose recovered in urine ([4]; in vivo): less than 1.5%
- half-life ([4]; plasma, human subjects, oral, read-out: elimination half-life (converted)): ~8 h
- dose proportionality of absorption in plasma ([4]; single or multiple oral doses between 50 mg and 800 mg): proportional absorption
- inhibition in PAR levels from baseline ([5]; 600 mg (MTD), food effect cohort, 2 to 4 hours post-dose): up to 90%
- decrease in PAR levels ([5]; 24 hours post-dose): ≥ 70%
- MTD ([6]; administered orally once daily, phase I study): 600 mg
- diarrhea ([6]; human, in vivo): 25%
- nausea ([6]; human, in vivo): 33%
- vomiting ([6]; human, in vivo): 16%
- DLT ([6]; in vivo): limited to fatigue and one case of anaphylactic reaction
- cases of grade 3 diarrhea ([6]; in vivo): two
- hematotoxicity or hepatotoxicity ([6]; in vivo): no significant hematotoxicity or hepatotoxicity was observed
- subjects with PD (breast cancer): Nine
- subjects with SD (breast cancer): three
- Tumor response CR, patients n (%) (advanced ovarian cancer; 600 mg QD, N = 18 IAP): 0 (0%)
- Tumor response PD, patients n (%) (advanced ovarian cancer; 600 mg QD, N = 18 IAP): 9 (50%)
- Tumor response PR, patients n (%) (advanced ovarian cancer; 600 mg QD, N = 18 IAP): 0 (0%)
- Tumor response SD > 16w, patients n (%) (advanced ovarian cancer; 600 mg QD, N = 18 IAP): 1 (6%)
- Tumor response SD, patients n (%) (advanced ovarian cancer; 600 mg QD, N = 18 IAP): 3 (17%)
- Tumor response CR, patients n (%) (advanced ovarian cancer; BID 200 mg morning + 400 mg evening, N = 10 IAP, unconfirmed): 1 (10%) unconfirmed
- mean of best change in tumor diameter from baseline, tumor reduction (advanced ovarian cancer; BID population): 29%
- median PFS (advanced ovarian cancer; BID population): not reached
- Tumor response PD, patients n (%) (advanced ovarian cancer; BID, N = 10 IAP): 0 (0%)
- Tumor response PR, patients n (%) (advanced ovarian cancer; BID, N = 10 IAP): 0 (0%)
- Tumor response SD > 16w, patients n (%) (advanced ovarian cancer; BID, N = 10 IAP): 1 (10%)
- Tumor response SD, patients n (%) (advanced ovarian cancer; BID, N = 10 IAP): 3 (30%)
- mean of best change in tumor diameter from baseline, tumor growth (advanced ovarian cancer; QD population): 4%
- CA125 response PR, patients n (%) (CA125; BID, N = 6 IAP): 0 (0%)
- CA125 response SD, patients n (%) (CA125; BID, N = 6 IAP): 1 (17%)
- CA125 response CR, patients n (%) (CA125; BID, N = 6 IAP, unconfirmed): 1 (17%) unconfirmed
- CA125 response CR, patients n (%) (CA125; QD, N = 16 IAP): 0 (0%)
- CA125 response PR, patients n (%) (CA125; QD, N = 16 IAP): 0 (0%)
- CA125 response SD, patients n (%) (CA125; QD, N = 16 IAP): 3 (19%)
- Dose modifications: Discontinuation ([7]; 600 mg BID (N = 9)): 0%
- Dose modifications: Interruption ([7]; 600 mg BID (N = 9)): 50%
- Dose modifications: Reduction ([7]; 600 mg BID (N = 9)): 40%
- Adverse events Grade 1-4 ([7]; 600 mg BID (N = 10)): 70%
- Adverse events Grade 3-4 ([7]; 600 mg BID (N = 10)): 20%
- Adverse events Grade 5 ([7]; 600 mg BID (N = 10)): 0%
- Treatment-related adverse events Grade 1 ([7]; 600 mg BID (N = 10)): 70%
- Treatment-related adverse events Grade 2 ([7]; 600 mg BID (N = 10)): 60%
- Treatment-related adverse events Grade 3 ([7]; 600 mg BID (N = 10)): 20%
- Treatment-related adverse events Grade 4 ([7]; 600 mg BID (N = 10)): 0%
- Treatment-related adverse events Grade 5 ([7]; 600 mg BID (N = 10)): 0%
- Adverse events Grade 1-4 ([7]; 600 mg QD (N = 18)): 100%
- Adverse events Grade 3-4 ([7]; 600 mg QD (N = 18)): 61%
- Adverse events Grade 5 ([7]; 600 mg QD (N = 18)): 6%
- Dose modifications: Discontinuation ([7]; 600 mg QD (N = 18)): 11%
- Dose modifications: Interruption ([7]; 600 mg QD (N = 18)): 83%
- Dose modifications: Reduction ([7]; 600 mg QD (N = 18)): 28%
- Treatment-related adverse events Grade 1 ([7]; 600 mg QD (N = 18)): 94%
- Treatment-related adverse events Grade 2 ([7]; 600 mg QD (N = 18)): 83%
- Treatment-related adverse events Grade 3 ([7]; 600 mg QD (N = 18)): 33%
- Treatment-related adverse events Grade 4 ([7]; 600 mg QD (N = 18)): 0%
- Treatment-related adverse events Grade 5 ([7]; 600 mg QD (N = 18)): 0%
- Anemia Grade 1-4 [8]: 21%
- Anemia Grade 3-4 [8]: 7%
- Neutropenia Grade 1-4 [8]: 2%
- Neutropenia Grade 3-4 [8]: 0%
- Thrombocytopenia Grade 1-4 [8]: 0%
- Thrombocytopenia Grade 3-4 [8]: 0%
- myelotoxicity among adverse events [9]: no myelotoxicity among adverse events found in more than 5% of patients
- IC50 (P-gp): 1390 nM
- IC50 (P-gp; with verapamil (P-gp antagonist; concentration not stated)): 1820 nM
- IC50 [10]: 1060 nM
- IC50 [11]: 219 nM
- IC50 [12]: 1100 nM
- PARP activity in tumor tissue (PARP activity; single dose 30 mg/kg, 12 hours post-dose): low levels of PARP activity were observed
- PARP activity in tumor tissue (PARP activity; single dose 30 or 100 mg/kg, 1 and 6 hours post-dose): completely inhibited
- PARP activity in tumor tissue (PARP activity; single dose 30 or 100 mg/kg, 24 hours post-dose): restored to control levels
